Measurements reported in PubChem BioAssay (NCI).
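Interpolation was linear, between the two tested concentrations surrounding the appropriate level; five concentrations were tested over 48 hours in 96-well plates. Here, GI50 denotes the concentration required for 50% inhibition of growth. TGI: total growth inhibition.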

Columns and labels:
Assay in all cases: NCI anticancer screen, dose series, 48 h
SW-620 colon = test system: SW-620 colon
SK-MEL-2 melanoma = test system: SK-MEL-2 melanoma
786-0 renal = test system: 786-0 renal
OVCAR-8 ovarian = test system: OVCAR-8 ovarian
M14 melanoma = test system: M14 melanoma
IGROV1 ovarian = test system: IGROV1 ovarian
CAKI-1 renal = test system: CAKI-1 renal
HCC-2998 colon = test system: HCC-2998 colon
SN12C renal = test system: SN12C renal
PC-3 prostate = test system: PC-3 prostate

## C/C(CC(=O)Nc1ccc(NC(=O)/C(C)=N/NS(=O)(=O)c2ccc(C)cc2)cc1)=N\NS(=O)(=O)c1ccc(C)cc1
SW-620 colon
  TGI: > 100 µM
SK-MEL-2 melanoma
  TGI: > 100 µM
786-0 renal
  TGI: > 100 µM
OVCAR-8 ovarian
  TGI: > 100 µM
M14 melanoma
  TGI: > 100 µM
IGROV1 ovarian
  TGI: > 100 µM
CAKI-1 renal
  TGI: > 100 µM
HCC-2998 colon
  TGI: > 100 µM
SN12C renal
  TGI: > 100 µM

## NCCCn1c2c(c3ccc([N+](=O)[O-])cc3c1=O)C(=O)c1cc(Cl)ccc1-2
SW-620 colon
  GI50: < 0.01 µM
  TGI: 0.213 µM
SK-MEL-2 melanoma
  GI50: 0.113 µM
  TGI: 0.275 µM
786-0 renal
  GI50: < 0.01 µM
  TGI: 0.0369 µM
OVCAR-8 ovarian
  GI50: < 0.01 µM
  TGI: 0.109 µM
M14 melanoma
  GI50: < 0.01 µM
  TGI: 0.0318 µM
CAKI-1 renal
  GI50: < 0.01 µM
  TGI: 0.317 µM
HCC-2998 colon
  GI50: < 0.0138 µM
  TGI: 0.119 µM
SN12C renal
  GI50: < 0.01 µM
  TGI: 0.146 µM
PC-3 prostate
  GI50: < 0.0163 µM
  TGI: 0.381 µM

## CN(C)NC(=S)NC12CC3CC(CC(C3)C1)C2
SW-620 colon
  TGI: > 100 µM
SK-MEL-2 melanoma
  TGI: > 100 µM
786-0 renal
  TGI: > 100 µM
OVCAR-8 ovarian
  TGI: > 100 µM
M14 melanoma
  TGI: > 100 µM
IGROV1 ovarian
  TGI: > 100 µM
CAKI-1 renal
  TGI: > 100 µM
HCC-2998 colon
  TGI: > 100 µM
SN12C renal
  TGI: > 100 µM

## Cc1cc(S(=O)(=O)Nc2nc3ccsc3c(=O)n2Cc2ccccc2)c(S)cc1Cl
SW-620 colon
  GI50: 34.1 µM
  TGI: > 100 µM
786-0 renal
  GI50: 32.2 µM
  TGI: > 100 µM
OVCAR-8 ovarian
  GI50: 44.5 µM
  TGI: > 100 µM
M14 melanoma
  GI50: 21.8 µM
  TGI: 49.6 µM
IGROV1 ovarian
  GI50: 43.1 µM
  TGI: > 100 µM
CAKI-1 renal
  GI50: 41.2 µM
  TGI: > 100 µM
HCC-2998 colon
  GI50: 24 µM
  TGI: 43.7 µM
SN12C renal
  GI50: 31.1 µM
  TGI: 58.8 µM
PC-3 prostate
  GI50: 40.4 µM
  TGI: > 100 µM

## O=C1C(Nc2cccc(O)c2)=C(Sc2ccc(Cl)cc2)C(=O)N1Cc1ccccc1
SK-MEL-2 melanoma
  GI50: 28.3 µM
  TGI: > 100 µM
786-0 renal
  GI50: 17.8 µM
  TGI: 50 µM
OVCAR-8 ovarian
  GI50: 6.03 µM
  TGI: 34.8 µM
M14 melanoma
  GI50: 6.94 µM
  TGI: 38.5 µM
IGROV1 ovarian
  GI50: 26.8 µM
  TGI: > 100 µM
CAKI-1 renal
  GI50: 18.6 µM
  TGI: 38.9 µM
HCC-2998 colon
  GI50: 2.94 µM
  TGI: 7.23 µM
SN12C renal
  GI50: 15.8 µM
  TGI: 55.1 µM
PC-3 prostate
  GI50: 4.66 µM
  TGI: 24.7 µM

## COC(=O)NN=C1C(C)(C)C(=NNC(=O)OC)C1(C)C
SW-620 colon
  TGI: > 100 µM
SK-MEL-2 melanoma
  TGI: > 100 µM
786-0 renal
  TGI: > 100 µM
OVCAR-8 ovarian
  TGI: > 55.9 µM
M14 melanoma
  TGI: > 100 µM
IGROV1 ovarian
  TGI: > 100 µM
CAKI-1 renal
  TGI: > 100 µM
HCC-2998 colon
  TGI: > 100 µM
SN12C renal
  TGI: > 100 µM

## C=C(C)C1CCC2(CO)C(O)CC3(C)C(CCC4C5(C)CCC(O)C(C)(C)C5CCC43C)C12 (stereo not drawn)
SW-620 colon
  TGI: > 100 µM
SK-MEL-2 melanoma
  TGI: 32 µM
786-0 renal
  TGI: > 100 µM
OVCAR-8 ovarian
  TGI: 20.7 µM
M14 melanoma
  TGI: > 100 µM
IGROV1 ovarian
  TGI: 30 µM
CAKI-1 renal
  TGI: > 100 µM
SN12C renal
  TGI: > 100 µM
PC-3 prostate
  TGI: 60.3 µM

## CN(Cc1ccccc1)c1nc(=[N+](C)C)ss1
SW-620 colon
  TGI: > 100 µM
SK-MEL-2 melanoma
  TGI: > 100 µM
786-0 renal
  TGI: > 100 µM
OVCAR-8 ovarian
  TGI: > 100 µM
M14 melanoma
  TGI: > 100 µM
IGROV1 ovarian
  TGI: > 100 µM
CAKI-1 renal
  TGI: > 100 µM
HCC-2998 colon
  TGI: > 100 µM
SN12C renal
  TGI: > 100 µM

## C[C@@]1(CBr)C[C@@](C)(/C=C/Cl)[C@@H](Cl)C[C@H]1Cl
SW-620 colon
  TGI: 27.8 µM
SK-MEL-2 melanoma
  TGI: 8.46 µM
786-0 renal
  TGI: 27 µM
OVCAR-8 ovarian
  TGI: 29.9 µM
M14 melanoma
  TGI: 29 µM
IGROV1 ovarian
  TGI: 29 µM
CAKI-1 renal
  TGI: 31.7 µM
HCC-2998 colon
  TGI: 29.8 µM
SN12C renal
  TGI: 24.4 µM
